Test results: paper PMC9369311, “Examination of Intracellular GPCR-Mediated Signaling with High Temporal Resolution” (International Journal of Molecular Sciences, 2022)
Where “and” joins values, the source holds several entries; their conditions need not be identical. Equal values may be shown once.

Target: T1, DmOctα1B receptor (Drosophila melanogaster, UniProt Q7JQF1)
T1 construct: expressed in transfected cells
T1 sequence (Q7JQF1 1-645): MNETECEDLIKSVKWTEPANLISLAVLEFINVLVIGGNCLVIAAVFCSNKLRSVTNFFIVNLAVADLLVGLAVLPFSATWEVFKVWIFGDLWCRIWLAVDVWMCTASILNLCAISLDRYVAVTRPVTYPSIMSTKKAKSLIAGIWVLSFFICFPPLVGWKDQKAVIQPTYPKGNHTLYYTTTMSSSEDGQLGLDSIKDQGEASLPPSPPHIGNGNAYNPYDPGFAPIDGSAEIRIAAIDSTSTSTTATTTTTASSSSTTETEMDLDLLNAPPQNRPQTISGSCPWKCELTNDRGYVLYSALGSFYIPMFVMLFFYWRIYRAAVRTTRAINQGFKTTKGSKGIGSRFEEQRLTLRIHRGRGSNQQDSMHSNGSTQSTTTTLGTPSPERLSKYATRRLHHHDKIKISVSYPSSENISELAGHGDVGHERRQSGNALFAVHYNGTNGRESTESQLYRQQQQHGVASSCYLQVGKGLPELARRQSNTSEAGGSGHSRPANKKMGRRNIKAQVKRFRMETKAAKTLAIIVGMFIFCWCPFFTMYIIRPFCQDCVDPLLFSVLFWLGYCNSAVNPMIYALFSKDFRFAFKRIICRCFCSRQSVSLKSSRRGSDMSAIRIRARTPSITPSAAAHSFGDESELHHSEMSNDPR
Experiment: Stopped-flow Ca2+ fluorescence measurements, DmOctα1B-expressing HEK293 cells
Format: cell-based
Details: for response time: Fluo-4 or GCaMP3.0
Experimental: As described for the fluorimetric measurements performed in 96 well plates, the stimulation of the DmOctα1B receptors with octopamine results in an efflux of Ca^2+ from the intracellular stores, which was now analyzed by stopped-flow experiments with high temporal resolution. The cells loaded with Fluo-4 or constitutively expressing GCaMP3.0 were diluted in extracellular solution (ES) to a density of 1 × 10^6 cells/mL prior to application to the stopped-flow system. The cells were mixed with increasing ligand concentrations and the fluorescence signals were monitored for 40 s (Figure 3). The increasing ligand concentrations lead to a rise in the fluorescence intensities. The initial Ca^2+ responses were detected at 1 nM octopamine and saturated at ligand concentrations ≥ 30 nM. After reaching a maximum, the fluorescence intensities decreased (Figure 3A1). This effect was more pronounced for concentrations ≤ 30 nM. In the cells expressing GCaMP3.0 (DmOctα1B-GCaMP3.0), additional increases in Ca^2+ were resolved (Figure 3B1), probably monitoring the Ca^2+ oscillations that are known to be induced upon DmOctα1B activation. To determine the ligand affinities for the receptor, the maximal fluorescence intensities were plotted against the octopamine concentrations. […] The EC50 values were obtained from nonlinear fitting of the data, using GraphPad Prism v5.04. […] Besides the determination of the EC50 values, information about reaction velocities could be gained when analyzing the first 4 s of the measurements. The increasing octopamine concentrations correlated with faster signal detection (Figure 3A2,B2). […] The reaction velocities in a concentration range from 3 nM to 300 nM octopamine were almost identical for the Fluo-4-loaded and the GCaMP3.0-expressing cells.
For the stopped-flow measurements, the SFM-400 system (BioLogic, Münster, Germany) was used. The main component of the stopped-flow setup is the SFM-400 module with four 10 mL syringes, which can be filled by external valves. The syringes are driven by step motors. The reactants can be mixed in three individual mixing chambers (M1–M3). The volume between M1 and M2 is 21 µL, and 31 µL between M2 and M3. The observation chamber is a quartz cuvette (FC-15) with a reaction volume of 31 µL, installed behind M3. To avoid fluctuations of the reaction mixture in the cuvette, which might lead to noisy and inconsistent signals, a hard stop valve located behind the cuvette can be closed after injection of the reactants. The stopped-flow module is controlled via a MPS-60 control unit (BioLogic). Data acquisition and operation of the system were performed with the Bio-Kine 32 v4.74 software (BioLogic).
The reactions in the cuvette were analyzed via the changes in the fluorescence. A 150 W Xe/Hg-lamp (ALX-220; BioLogic) was used as a light source for the excitation. The excitation light was guided via a light guide towards the cuvette. To determine the wavelength of the excitation light, a 482 nm bandpass filter (482/35 nm BrightLine® single-band bandpass filter; Semrock, Rochester, NY, USA) was used. A heat protection filter (3 mm; KG1, Schott; Mainz, Germany) was placed between the Xe/Hg-lamp and the excitation filter. The fluorescence was detected with a photomultiplier (PMS 200, BioLogic) installed rectangularly to the light path of the excitation light. Between the cuvette and the photomultiplier tube a 535 nm bandpass emission filter (XF3007 535AF35; Horiba, Oberursel, Germany) was placed to select for the emission light being detected by the photomultiplier. A voltage of 600 V was applied to the photomultiplier.
The fluorescence measurements were performed either directly with the cells expressing GCaMP3.0 or after loading the cells with Fluo-4-AM. Changes in the intracellular Ca^2+ were induced by stimulating the cells with a concentration series of different ligands. In the stopped-flow module, four different solutions can be mixed. […]

Which response time (low ligand concentrations ≤ 3 nM (1 nM elsewhere in the source)) does the source give for `NCC(O)c1ccc(O)cc1` (stereo not drawn) [octopamine] here?
Its response time is ~ 2 s and 2 s.

What about the “Signal Response Time” value (saturating concentration, DmOctα1B cells loaded with Fluo-4, mean ± SEM) of the same molecule?
The value was 0.35 ± 0.04 s.

And the “Signal Response Time” value (saturating concentration, DmOctα1B-GCaMP3.0 cells, mean ± SEM)?
The value was 0.36 ± 0.05 s.

And the Signal Response Time (saturating ligand concentration, DmOctα1B cell lines, Fluo-4 and GCaMP3.0)?
The Signal Response Time was 0.35 s.

And the response time (saturating octopamine concentrations (≥30 nM; 300 nM))?
Its response time is ~ 300 ms and ≈ 350 ms.

And the “concentration at which initial Ca2+ responses were detected” value (stopped-flow, DmOctα1B cells)?
Its value is 1 nM.

And the “ligand concentration at which Ca2+ responses saturated” value (stopped-flow, DmOctα1B cells)?
Its value is ≥ 30 nM.

And the EC50 (stopped-flow, DmOctα1B cells loaded with Fluo-4, mean ± SEM)?
The EC50 was 2.25 nM and 2.3 nM.

And the EC50 (stopped-flow, DmOctα1B-GCaMP3.0 cells, mean ± SEM)?
The EC50 was 1.7 ± 0.1 nM.
